Converted amounts (≈) assume the structure as drawn. Where two headings read alike, the source gives them in different places.
Key:
[1] = tested on: HCT116 (human colorectal) cell line; test: Sulforhodamine-B (SRB) cytotoxicity assay; assay type: cell-based; conditions: HCT-116, SRB assay, HCT116 cell line, read-out: IC50 HCT116
M. tuberculosis H37Rv [2] = test: Minimum lethal concentration (MLC); assay type: cell-based; conditions: Mycobacterium tuberculosis, NA = no activity, read-out: MLC against M. tuberculosis H37Rv
S. typhi [3] = test: Tube dilution MIC; assay type: cell-based; conditions: Salmonella enterica, 24 h, read-out: MIC S. typhi
B. subtilis [4] = test: MBC by subculturing; assay type: cell-based
Experimental: (§1) The minimum bactericidal concentration (MBC) and minimum fungicidal concentration (MFC) of the synthesized benzimidazole derivatives was determined by subculturing 100 µl of culture from each tube that remained clear in MIC determination onto sterilized petri-plates containing fresh agar medium. The petri-plates were incubated and analyzed for microbial growth visually.

S. typhi [5] = test: MBC by subculturing; assay type: cell-based; conditions: Salmonella enterica, read-out: MBC S. typhi
Experimental: as §1

S. aureus [6] = test: MBC by subculturing; assay type: cell-based; conditions: Staphylococcus aureus
Experimental: as §1

E. coli [7] = test: MBC by subculturing; assay type: cell-based; conditions: Escherichia coli
Experimental: as §1

B. cereus [8] = test: MBC by subculturing; assay type: cell-based
Experimental: as §1

A. niger [9] = test: MFC by subculturing; assay type: cell-based
Experimental: as §1

C. albicans [10] = test: MFC by subculturing; assay type: cell-based
Experimental: as §1

B. cereus [11] = test: Tube dilution MIC; conditions: Bacillus cereus, 24 h, read-out: MIC B. cereus
S. aureus [12] = test: Tube dilution MIC; conditions: Staphylococcus aureus, 24 h, read-out: MIC S. aureus
[13] = In vivo LD50, ED50 and toxic dose in mice models; conditions: mouse, dose that killed 50% of the mice population within the group
Experimental: The LD50 and ED50 were determined for the active compounds in mice models infected with Mycobacterium H37Rv (Table 4). […] Thus, ED50 of 1.34 mg/kg was considered safe for each of the compounds. It was observed that this dose was effective and safe for mice in different groups before infecting the mice models with specific TB bacteria as no mortality of any single animal was recorded.
The LD50 (lethal dose) and ED50 (optimum/effective dose) doses were determined for the active compounds in mice models infected with Mycobacterium H37Rv via ethical permission no., NCFT/EC/16/2313 assigned to Collaborative Research Group (CRG), NCFT, New Delhi, India.

B. subtilis [14] = test: Tube dilution MIC; conditions: Bacillus subtilis, 24 h, read-out: MIC B. subtilis
C. albicans [15] = test: microbe, parasite or virus in culture; conditions: Candida albicans, 48 h, read-out: MIC C. albicans
A. niger [16] = test: microbe, parasite or virus in culture; conditions: Aspergillus niger, 168 h, read-out: MIC A. niger
[17] = molecular target: mycobacterial isocitrate lyase (Mycobacterium tuberculosis, UniProt P9WKK7); test: Mycobacterial isocitrate lyase (ICL) assay; assay type: biochemical, M. tuberculosis H37Rv; conditions: read-out: Percent inhibition of enzyme, M. ICL activity
mycobacterial isocitrate lyase, sequence (P9WKK7 whole entry): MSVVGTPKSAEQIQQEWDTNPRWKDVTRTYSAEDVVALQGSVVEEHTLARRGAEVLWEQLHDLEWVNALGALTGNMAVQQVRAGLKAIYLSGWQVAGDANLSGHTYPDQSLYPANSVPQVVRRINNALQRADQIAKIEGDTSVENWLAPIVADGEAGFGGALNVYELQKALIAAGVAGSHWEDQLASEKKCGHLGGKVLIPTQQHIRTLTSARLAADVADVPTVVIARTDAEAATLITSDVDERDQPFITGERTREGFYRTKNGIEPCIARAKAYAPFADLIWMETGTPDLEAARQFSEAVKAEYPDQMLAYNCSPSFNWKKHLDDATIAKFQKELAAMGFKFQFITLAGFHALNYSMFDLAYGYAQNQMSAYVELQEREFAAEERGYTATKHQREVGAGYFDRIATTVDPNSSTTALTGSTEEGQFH
Experimental: The compounds found potent in in vivo evaluation were assayed for inhibition of mycobacterial enzymes viz., isocitrate lyase, pantothenate synthetase and chorismate mutase.
Isocitrate lyase activity was assayed according to the protocol reported by Dixon and Kornberg (glyoxylate phenyl hydrazone formation) at 10 μM of the compounds.

E. coli [18] = test: Tube dilution MIC; conditions: Escherichia coli, 24 h, read-out: MIC E. coli
[19] = tested on: M. tuberculosis H37Rv (NCFT/TB/537); test: Well diffusion susceptibility test (zone of inhibition); assay type: cell-based; conditions: Mycobacterium tuberculosis, 672 h, read-out: Diameter of zone of inhibition against H37Rv (NCFT/TB/537), wells of 8 mm, 50 µg/ml test compound, 25 µg/ml standard drug, 4 weeks, NA = no activity
M. tuberculosis H37Rv [20] = test: MIC by microplate alamar blue assay; assay type: cell-based; conditions: Mycobacterium tuberculosis, NA = no activity, read-out: MIC against M. tuberculosis H37Rv
[21] = tested on: MCF7 (human breast cancer) cell line; test: Sulforhodamine-B (SRB) cytotoxicity assay; assay type: cell-based; conditions: SRB assay, MCF7 cell line, read-out: IC50 MCF7
[22] = Bacillus subtilis; read-out: MBC B. subtilis
[23] = Bacillus cereus; read-out: MBC B. cereus
[24] = Aspergillus niger; read-out: MFC A. niger
[25] = Candida albicans; read-out: MFC C. albicans

| Structure (SMILES) | IC50 [1] | MBC (M. tuberculosis H37Rv [2]) | MIC (S. typhi [3]) | MBC (S. typhi [5]) | MBC (S. aureus [6]) | MBC (E. coli [7]) | MIC (B. cereus [11]) | MIC (S. aureus [12]) | MIC (B. subtilis [14]) | MIC (C. albicans [15]) | MIC (A. niger [16]) | MIC (E. coli [18]) | zone of inhibition at 50 µg/mL [19] | MIC (M. tuberculosis H37Rv [20]) | MBC (B. subtilis [4]; [22]) | MBC (B. cereus [8]; [23]) | MFC (A. niger [9]; [24]) | MFC (C. albicans [10]; [25]) | further results |
| --- | --- | --- | --- | --- | --- | --- | --- | --- | --- | --- | --- | --- | --- | --- | --- | --- | --- | --- | --- |
| O=c1[nH]cc(F)c(=O)[nH]1 [Compound 5-FU, 5-fluorouracil, reference compound] | 12.5 µM | – | – | – | – | – | – | – | – | – | – | – | – | – | – | – | – | – | – |
| COc1ccc(NC(=O)CSc2nc3ccccc3n2C(=O)c2ccccc2)cc1 [Compound 18, 2-(1-Benzoyl-1H-benzo[d]imidazol-2-ylthio)-N-(4-methoxyphenyl)acetamide] | – | 25 µg/mL (≈ 59.9 µM) | 30 µM (≈ 12.5 µg/mL) | > 50 µg/mL | > 50 µg/mL | 50 µg/mL (≈ 120 µM) | 30 µM (≈ 12.5 µg/mL) | 30 µM (≈ 12.5 µg/mL) | 30 µM (≈ 12.5 µg/mL) | 15 µM (≈ 6.26 µg/mL) | 30 µM (≈ 12.5 µg/mL) | 30 µM (≈ 12.5 µg/mL) | > 20 mm | 12.5 µg/mL (≈ 29.9 µM) | – | – | – | – | MBC (B. subtilis [4]; Bacillus subtilis, read-out: MBC B. subtilis): > 50 µg/mL; MBC (B. cereus [8]; Bacillus cereus, read-out: MBC B. cereus): > 50 µg/mL; MFC (A. niger [9]; Aspergillus niger, read-out: MFC A. niger): > 50 µg/mL; MFC (C. albicans [10]; Candida albicans, read-out: MFC C. albicans): 50 µg/mL (≈ 120 µM); LD50 [13]: 3.15 mg/kg; inhibition at 10 µM [17]: 64.6% |
| O=C(CSc1nc2ccccc2n1C(=O)c1ccccc1)Nc1cccc(Cl)c1 [Compound 5, 2-(1-Benzoyl-1H-benzo[d]imidazol-2-ylthio)-N-(3-chlorophenyl)acetamide] | 131 µM | 28.1 µg/mL (≈ 66.6 µM) | 30 µM (≈ 12.7 µg/mL) | 50 µg/mL (≈ 119 µM) | 50 µg/mL (≈ 119 µM) | 50 µg/mL (≈ 119 µM) | 30 µM (≈ 12.7 µg/mL) | 30 µM (≈ 12.7 µg/mL) | 30 µM (≈ 12.7 µg/mL) | 15 µM (≈ 6.33 µg/mL) | 30 µM (≈ 12.7 µg/mL) | 30 µM (≈ 12.7 µg/mL) | 8 mm | 17.8 µg/mL (≈ 42.2 µM) | 50 µg/mL (≈ 119 µM) | > 50 µg/mL | > 50 µg/mL | 50 µg/mL (≈ 119 µM) | IC50 [21]: 83.1 µM |
| CC1=C(C(=O)O)N2C(=O)[C@@H](NC(=O)[C@H](N)c3ccc(O)cc3)[C@H]2SC1 [Cefadroxil, reference compound] | – | – | 370 µM (≈ 134 µg/mL) | – | – | – | 370 µM (≈ 134 µg/mL) | 370 µM (≈ 134 µg/mL) | 370 µM (≈ 134 µg/mL) | – | – | 370 µM (≈ 134 µg/mL) | – | – | – | – | – | – | – |
| Cc1ccc(NC(=O)CSc2nc3ccccc3n2C(=O)c2ccccc2)c(C)c1 [Compound 20, 2-(1-Benzoyl-1H-benzo[d]imidazol-2-ylthio)-N-(2,4-dimethylphenyl)acetamide] | – | 28 µg/mL (≈ 67.4 µM) | 30 µM (≈ 12.5 µg/mL) | 50 µg/mL (≈ 120 µM) | 50 µg/mL (≈ 120 µM) | > 50 µg/mL | 30 µM (≈ 12.5 µg/mL) | 30 µM (≈ 12.5 µg/mL) | 30 µM (≈ 12.5 µg/mL) | 15 µM (≈ 6.23 µg/mL) | 30 µM (≈ 12.5 µg/mL) | 30 µM (≈ 12.5 µg/mL) | 10 mm | 15 µg/mL (≈ 36.1 µM) | 50 µg/mL (≈ 120 µM) | > 50 µg/mL | > 50 µg/mL | 25 µg/mL (≈ 60.2 µM) | – |
| Cc1cccc(NC(=O)CSc2nc3ccccc3n2C(=O)c2ccccc2)c1 [Compound 19, 2-(1-Benzoyl-1H-benzo[d]imidazol-2-ylthio)-N-m-tolylacetamide] | – | – | 31 µM (≈ 12.4 µg/mL) | > 50 µg/mL | 50 µg/mL (≈ 125 µM) | > 50 µg/mL | 31 µM (≈ 12.4 µg/mL) | 31 µM (≈ 12.4 µg/mL) | 31 µM (≈ 12.4 µg/mL) | 16 µM (≈ 6.42 µg/mL) | 31 µM (≈ 12.4 µg/mL) | 31 µM (≈ 12.4 µg/mL) | – | – | 50 µg/mL (≈ 125 µM) | > 50 µg/mL | > 50 µg/mL | 50 µg/mL (≈ 125 µM) | – |
| Cc1ccccc1NC(=O)CSc1nc2ccccc2n1C(=O)c1ccccc1 [Compound 16, 2-(1-Benzoyl-1H-benzo[d]imidazol-2-ylthio)-N–o-tolylacetamide] | 87.2 µM | 28 µg/mL (≈ 69.7 µM) | 31 µM (≈ 12.4 µg/mL) | 50 µg/mL (≈ 125 µM) | 50 µg/mL (≈ 125 µM) | > 50 µg/mL | 31 µM (≈ 12.4 µg/mL) | 31 µM (≈ 12.4 µg/mL) | 31 µM (≈ 12.4 µg/mL) | 16 µM (≈ 6.42 µg/mL) | 31 µM (≈ 12.4 µg/mL) | 31 µM (≈ 12.4 µg/mL) | 10 mm | 15 µg/mL (≈ 37.4 µM) | 50 µg/mL (≈ 125 µM) | > 50 µg/mL | > 50 µg/mL | 25 µg/mL (≈ 62.3 µM) | IC50 [21]: 124 µM |

Reference: publication PMC5971037, “Synthesis and evaluation of antimicrobial, antitubercular and anticancer activities of 2-(1-benzoyl-1H-benzo[d]imidazol-2-ylthio)-N-substituted acetamides” (Chemistry Central Journal, 2018)
